Data as given in patent US10010077B2, “Ginkgo derived compositions and their use to prevent fruit infestation by codling moth” (Missouri State University, priority 2012, dated 2018).
Marks after values point to notes of the source that are not given here.

Tests used:
codling moth neonates = assay: apple plug choice feeding bioassay with codling moth neonates; type: in vivo, Cydia pomonella; design: key to Deterrence index: (1 − treated feeders / control feeders) × 100; conditions: for feeding deterrent properties against codling moth neonates: all concentrations tested; for feeding deterrent properties against codling moth neonates / concentration at which feeding deterrent effects were found: Fisher exact test
Description: Codling moth pupae were obtained from USDA-ARS Yakima Agricultural Research Laboratory in Wapato, Wash., USA. These pupae were stored at 25° C., 70-80% relative humidity and 16:8 (L:D). Moths were allowed to oviposit on polypropylene Ziploc bags (S. C. Johnson, Racine, Wis., USA). Neonates were collected 0.5-1.0 h post-hatch and subjected to bioassays immediately.
Bioassays were performed as described in details by Durden et al. (2008). Briefly, apple plugs were formed by forcing a plastic soda straw through a 20 mm thick section of apple containing both epidermis and flesh of the apple. The straw with a plug in it was cut to a length of approximately 15 mm, the plug positioned with the epidermis of the apple protruding 2 mm from the straw and entire assembly was dipped in liquid paraffin wax. Excess wax was removed from the epidermis of the plug using a warm spatula.
Five microliters of either control (dehydration alcohol only) or experimental solution was applied to the epidermis of each apple plug and allowed to dry. Using a small amount of modeling clay, four plugs (two controls, two experimental) were arranged with one control and one experimental plug facing each other at either side of a 60×15 mm polyurethane petri dish. A short piece of glass rod (1.3 mm diameter) was placed between the two pairs of plugs to form a bridge allowing tested codling moth neonate to choose between either control or experimental plug regardless of which direction the larva traveled along the glass rod.
Assays were evaluated after 20 hours to determine which plug was fed upon. Feeding deterrence index was calculated according to Jones (1952) by dividing the number of the neonates feeding on apple plugs treated with […] by the number of the neonates feeding on the plugs treated with dehydration alcohol only, subtracting this figure from 1, and multiplying the result by 100. Further details about this method may be found in Durden et al. (2008) and Durden et al., (2011).
[…] The number of tests per concentration (each test performed with a different neonate) varied between 13 and 93. The null hypothesis that 50% of neonates would choose control plugs and 50% would choose experimental plugs was tested using Fisher's Exact Test (α=0.05).

mammals = conditions: cited from earlier work
[1] = concentration of 0.2%; cited from earlier work
[2] = choice test versus fruit treated at 0.01 mg/ml
[3] = choice test versus fruit treated at 0.1 mg/ml
[4] = choice test versus fruit treated at 1 mg/ml
[5] = circa 3 mg/ml, saturated solution
[6] = choice test versus fruit treated at 0.5 mg/ml
[7] = choice test versus fruit treated at 5 mg/ml
[8] = choice test versus fruit treated at 10 mg/ml
[9] = choice test versus fruit treated at 30 mg/ml

Compound: COc1cc(-c2oc3cc(O)cc(O)c3c(=O)c2O)ccc1O [Isorhamnetin]
- Deterrence index (codling moth neonates; 0.01 mg/ml): 21.7
- Number of neonates feeding Treated fruit (codling moth neonates; 0.01 mg/ml): 18
- Deterrence index (codling moth neonates; 0.1 mg/ml): 10.3
- Number of neonates feeding Treated fruit (codling moth neonates; 0.1 mg/ml): 26
- Deterrence index (codling moth neonates; 1 mg/ml): No deterrence
- Number of neonates feeding Treated fruit (codling moth neonates; 1 mg/ml): 43
- feeding deterrent properties against codling moth neonates (codling moth neonates): slight tendency to discourage some percentage of the larvae from infesting the fruit
- Number of neonates feeding Control fruit (codling moth neonates; [2]): 23
- Number of neonates feeding Control fruit (codling moth neonates; [3]): 29
- Number of neonates feeding Control fruit (codling moth neonates; [4]): 28
- Number of neonates feeding Control fruit (codling moth neonates; choice test versus fruit treated at circa 3 mg/ml, saturated solution): 28
- Deterrence index (codling moth neonates; [5]): 32.1
- Number of neonates feeding Treated fruit (codling moth neonates; [5]): 19

Compound: CCCCCCCCCCCCCCCc1cccc(O)c1C(=O)O [Ginkgolic acid 15:0]
- Deterrence index (codling moth neonates; 0.2 mg/ml): 25.0
- Number of neonates feeding Treated fruit (codling moth neonates; 0.2 mg/ml): 12
- Deterrence index (codling moth neonates; 0.5 mg/ml): 26.7
- Number of neonates feeding Treated fruit (codling moth neonates; 0.5 mg/ml): 11
- Deterrence index (codling moth neonates; 1 mg/ml): 91.7
- Number of neonates feeding Treated fruit (codling moth neonates; 1 mg/ml): 1*
- Deterrence index (codling moth neonates; 2 mg/ml): 73.7
- Number of neonates feeding Treated fruit (codling moth neonates; 2 mg/ml): 5*
- Deterrence index (codling moth neonates; 5 mg/ml): 81.8
- Number of neonates feeding Treated fruit (codling moth neonates; 5 mg/ml): 4**
- concentration at which feeding deterrent effects were found (codling moth neonates): ≥ 1 mg/mL
- Number of neonates feeding Control fruit (codling moth neonates; choice test versus fruit treated at 0.2 mg/ml): 16
- Number of neonates feeding Control fruit (codling moth neonates; [6]): 15
- Number of neonates feeding Control fruit (codling moth neonates; [4]): 12
- Number of neonates feeding Control fruit (codling moth neonates; choice test versus fruit treated at 2 mg/ml): 19
- Number of neonates feeding Control fruit (codling moth neonates; [7]): 22

Compound: Ginkgolide C
- Deterrence index (codling moth neonates; 0.1 mg/ml): 11.8
- Number of neonates feeding Treated fruit (codling moth neonates; 0.1 mg/ml): 15
- Deterrence index (codling moth neonates; 1 mg/ml): 20
- Number of neonates feeding Treated fruit (codling moth neonates; 1 mg/ml): 24
- Deterrence index (codling moth neonates; 10 mg/ml): 10
- Number of neonates feeding Treated fruit (codling moth neonates; 10 mg/ml): 18
- feeding deterrent properties against codling moth neonates (codling moth neonates): did not exhibit significant feeding deterrent properties
- Number of neonates feeding Control fruit (codling moth neonates; [3]): 17
- Number of neonates feeding Control fruit (codling moth neonates; [4]): 30
- Number of neonates feeding Control fruit (codling moth neonates; [8]): 20

Compound: C[C@@H]1C(=O)O[C@H]2C[C@@]34[C@H]5C[C@@H](C(C)(C)C)[C@]36[C@@H](OC(=O)[C@@H]6O)O[C@@]4(C(=O)O5)[C@]21O [Ginkgolide A]
- Deterrence index (codling moth neonates; 0.1 mg/ml): 7.69
- Number of neonates feeding Treated fruit (codling moth neonates; 0.1 mg/ml): 12
- Deterrence index (codling moth neonates; 1 mg/ml): 40.4
- Number of neonates feeding Treated fruit (codling moth neonates; 1 mg/ml): 28
- Deterrence index (codling moth neonates; 10 mg/ml): 38.5
- Number of neonates feeding Treated fruit (codling moth neonates; 10 mg/ml): 16
- feeding deterrent properties against codling moth neonates (codling moth neonates): did not exhibit significant feeding deterrent properties
- Number of neonates feeding Control fruit (codling moth neonates; [3]): 13
- Number of neonates feeding Control fruit (codling moth neonates; [4]): 47
- Number of neonates feeding Control fruit (codling moth neonates; [8]): 26

Compound: CCCCCCCCCCCCCc1cccc(O)c1C(=O)O [Ginkgolic acid 13:0]
- Deterrence index (codling moth neonates; 0.5 mg/ml): 23.5
- Number of neonates feeding Treated fruit (codling moth neonates; 0.5 mg/ml): 13
- Deterrence index (codling moth neonates; 1 mg/ml): 26.1
- Number of neonates feeding Treated fruit (codling moth neonates; 1 mg/ml): 17
- Deterrence index (codling moth neonates; 5 mg/ml): 0
- Number of neonates feeding Treated fruit (codling moth neonates; 5 mg/ml): 14
- Deterrence index (codling moth neonates; 10 mg/ml): 42.1
- Number of neonates feeding Treated fruit (codling moth neonates; 10 mg/ml): 11
- feeding deterrent properties against codling moth neonates (codling moth neonates): did not exhibit significant feeding deterrent properties
- Number of neonates feeding Control fruit (codling moth neonates; [6]): 17
- Number of neonates feeding Control fruit (codling moth neonates; [4]): 23
- Number of neonates feeding Control fruit (codling moth neonates; [7]): 14
- Number of neonates feeding Control fruit (codling moth neonates; [8]): 19

Compound: CCCCCC/C=C\CCCCCCCCCc1cccc(O)c1C(=O)O [Ginkgolic acid 17:1]
- Deterrence index (codling moth neonates; 0.5 mg/ml): 37.5
- Number of neonates feeding Treated fruit (codling moth neonates; 0.5 mg/ml): 10
- Deterrence index (codling moth neonates; 1 mg/ml): 5.3
- Number of neonates feeding Treated fruit (codling moth neonates; 1 mg/ml): 18
- Deterrence index (codling moth neonates; 5 mg/ml): 54.5
- Number of neonates feeding Treated fruit (codling moth neonates; 5 mg/ml): 10
- Deterrence index (codling moth neonates; 10 mg/ml): 60.0
- Number of neonates feeding Treated fruit (codling moth neonates; 10 mg/ml): 8
- feeding deterrent properties against codling moth neonates (codling moth neonates): did not exhibit significant feeding deterrent properties
- Number of neonates feeding Control fruit (codling moth neonates; [6]): 16
- Number of neonates feeding Control fruit (codling moth neonates; [4]): 19
- Number of neonates feeding Control fruit (codling moth neonates; [7]): 22
- Number of neonates feeding Control fruit (codling moth neonates; [8]): 20

Compound: CCCCCC/C=C\CCCCCCCc1cccc(O)c1C(=O)O [Ginkgolic acid 15:1]
- Deterrence index (codling moth neonates; 0.5 mg/ml): 18.8
- Number of neonates feeding Treated fruit (codling moth neonates; 0.5 mg/ml): 13
- Deterrence index (codling moth neonates; 1 mg/ml): 41.7
- Number of neonates feeding Treated fruit (codling moth neonates; 1 mg/ml): 14
- Deterrence index (codling moth neonates; 5 mg/ml): 50.0
- Number of neonates feeding Treated fruit (codling moth neonates; 5 mg/ml): 15
- Deterrence index (codling moth neonates; 10 mg/ml): 63.2
- Number of neonates feeding Treated fruit (codling moth neonates; 10 mg/ml): 7
- feeding deterrent properties against codling moth neonates (codling moth neonates): did not exhibit significant feeding deterrent properties
- Number of neonates feeding Control fruit (codling moth neonates; [6]): 16
- Number of neonates feeding Control fruit (codling moth neonates; [4]): 24
- Number of neonates feeding Control fruit (codling moth neonates; [7]): 30
- Number of neonates feeding Control fruit (codling moth neonates; [8]): 19

Compound: O=c1c(O)c(-c2ccc(O)c(O)c2)oc2cc(O)cc(O)c12 [Quercetin]
- Deterrence index (codling moth neonates; 0.1 mg/ml): No deterrence
- Number of neonates feeding Treated fruit (codling moth neonates; 0.1 mg/ml): 14
- Deterrence index (codling moth neonates; 1 mg/ml): No deterrence
- Number of neonates feeding Treated fruit (codling moth neonates; 1 mg/ml): 24
- Deterrence index (codling moth neonates; 10 mg/ml): No deterrence
- Number of neonates feeding Treated fruit (codling moth neonates; 10 mg/ml): 20
- Deterrence index (codling moth neonates; 30 mg/ml): No deterrence**
- Number of neonates feeding Treated fruit (codling moth neonates; 30 mg/ml): 21
- Number of neonates feeding Control fruit (codling moth neonates; [3]): 10
- Number of neonates feeding Control fruit (codling moth neonates; [4]): 24
- Number of neonates feeding Control fruit (codling moth neonates; [8]): 16
- Number of neonates feeding Control fruit (codling moth neonates; [9]): 4

Compound: CC(C)(C)[C@]1(O)CC2OC(=O)CC23C(=O)OC2OC(=O)[C@H](O)C231 (some centres unmarked) [Bilobalide]
- Deterrence index (codling moth neonates; 0.001 mg/ml): 0
- Number of neonates feeding Treated fruit (codling moth neonates; 0.001 mg/ml): 15
- Deterrence index (codling moth neonates; 0.01 mg/ml): 23.5
- Number of neonates feeding Treated fruit (codling moth neonates; 0.01 mg/ml): 13
- Deterrence index (codling moth neonates; 0.1 mg/ml): 56.5
- Number of neonates feeding Treated fruit (codling moth neonates; 0.1 mg/ml): 20*
- Deterrence index (codling moth neonates; 1 mg/ml): 50
- Number of neonates feeding Treated fruit (codling moth neonates; 1 mg/ml): 31*
- Deterrence index (codling moth neonates; 10 mg/ml): 75
- Number of neonates feeding Treated fruit (codling moth neonates; 10 mg/ml): 8**
- concentration at which feeding deterrent effects were found (codling moth neonates): ≥ 0.1 mg/mL
- Number of neonates feeding Control fruit (codling moth neonates; choice test versus fruit treated at 0.001 mg/ml): 15
- Number of neonates feeding Control fruit (codling moth neonates; [2]): 17
- Number of neonates feeding Control fruit (codling moth neonates; [3]): 46
- Number of neonates feeding Control fruit (codling moth neonates; [4]): 62
- Number of neonates feeding Control fruit (codling moth neonates; [8]): 32
- LD50 (mammals): > 1,000 mg/kg
- phytotoxicity [1]: not phytotoxic

Compound: CC1C(=O)OC2C(O)C34C5CC(C(C)(C)C)C36C(OC(=O)C6O)OC4(C(=O)O5)C12O (centres unmarked) [Ginkgolide B]
- Deterrence index (codling moth neonates; 0.1 mg/ml): 12.5
- Number of neonates feeding Treated fruit (codling moth neonates; 0.1 mg/ml): 14
- Deterrence index (codling moth neonates; 1 mg/ml): 26.1
- Number of neonates feeding Treated fruit (codling moth neonates; 1 mg/ml): 17
- Deterrence index (codling moth neonates; 10 mg/ml): 76.0
- Number of neonates feeding Treated fruit (codling moth neonates; 10 mg/ml): 6***
- concentration at which feeding deterrent effects were found (codling moth neonates): 10 mg/mL
- Number of neonates feeding Control fruit (codling moth neonates; [3]): 16
- Number of neonates feeding Control fruit (codling moth neonates; [4]): 23
- Number of neonates feeding Control fruit (codling moth neonates; [8]): 25

Compound: O=c1c(O)c(-c2ccc(O)cc2)oc2cc(O)cc(O)c12 [Kaempferol]
- Deterrence index (codling moth neonates; 0.1 mg/ml): No deterrence
- Number of neonates feeding Treated fruit (codling moth neonates; 0.1 mg/ml): 12
- Deterrence index (codling moth neonates; 1 mg/ml): 25
- Number of neonates feeding Treated fruit (codling moth neonates; 1 mg/ml): 24
- Deterrence index (codling moth neonates; 10 mg/ml): No deterrence
- Number of neonates feeding Treated fruit (codling moth neonates; 10 mg/ml): 10
- Deterrence index (codling moth neonates; 30 mg/ml): No deterrence**
- Number of neonates feeding Treated fruit (codling moth neonates; 30 mg/ml): 35
- Deterrence index (codling moth neonates; 60 mg/ml): No deterrence*
- Number of neonates feeding Treated fruit (codling moth neonates; 60 mg/ml): 17
- Number of neonates feeding Control fruit (codling moth neonates; [3]): 8
- Number of neonates feeding Control fruit (codling moth neonates; [4]): 32
- Number of neonates feeding Control fruit (codling moth neonates; [8]): 10
- Number of neonates feeding Control fruit (codling moth neonates; [9]): 9
- Number of neonates feeding Control fruit (codling moth neonates; choice test versus fruit treated at 60 mg/ml): 3
